Results taken from patent US4443536A, “Nondiffusible photographic couplers and photographic elements and processes employing same” (Eastman Kodak Company, priority 1982, dated 1984).
“And” between values parts separate entries of the source, which are not always exact repeats. Identical values can stand only once. One block for each compound: values may come before it.

Experiment: Dye hue from spectrophotometric curves: λ-max, half band width, curve shape factor
Conditions: for CSF (curve shape factor, 100 X TBW/HBW) / HBW (half band width) / λ-max (maximum absorption peak of dye): Table I; for CSF / HBW / λ-max: Table II
Description: Photographic elements containing couplers of this invention and control couplers were prepared and tested according to the procedures described below.
The photosensitive layer was overcoated with a layer containing gelatin at 1.08 g/m^2 and bis-vinyl-sulfonylmethyl ether at 1.75 weight percent based on total gelatin.
Samples of each element were imagewise exposed through a graduated-density test object and processed at 40° C. employing one of three color developing solutions identified below then stopped, bleached, fixed and washed.
In each element, well-defined, dye images were produced which were evaluated by plotting dye density vs. log exposure sensitometric curves and recording the maximum dye density (Dmax) and gamma (γ) i.e., the contrast determined by the slope of the straight line portion of the curve. Additionally, dye hues were evaluated from spectrophotometric curves by measuring the maximum absorption peak (λmax) normalized to a density of 1.0 and the half band width (HBW). Halfband width is the width, in nanometers, of the spectrophotometric curve at one-half the difference between maximum density and stain. Similarly, the top-band width (TBW) and bottom-band width (BBW) of the curve were measured at three-fourths and one-fourth, respectively, of the normalized density. Curve shape factor (CSF) equals 100 X TBW/HBW and provides a ratio of the width near the top and bottom of the absorption curve. The greater this ratio, the steeper are the sides of the absorption peak, and the more efficient is the dye's absorption of light in its spectral region.
Photographic elements containing additional couplers of this invention were prepared, processed and evaluated as described above in connection with Examples 1-14.

[1] = coupler solvent CS-1, developer D-1
[2] = coupler solvent CS-2, developer D-2
[3] = coupler solvent CS-2, developer D-3
[4] = coupler solvent CS-3, developer D-2
[5] = coupler solvent CS-3, developer D-1
[6] = coupler solvent CS-3, developer D-3
[7] = coupler solvent CS-4, developer D-3

CSF (curve shape factor, 100 X TBW/HBW) [1]: 43.3 and 43.6 and 43.1
HBW (half band width) [1]: 94 nanometers
λ-max (maximum absorption peak of dye) [1]: 531
Compound: CCCCCCCCCCCCCCCc1cccc(OC(CC)C(=O)NC2=NN(c3c(C)cc(C)cc3Cl)C(=O)C2)c1 (stereo not drawn) [CC-1, reference compound]

CSF (curve shape factor, 100 X TBW/HBW) [2]: 46.3 and 39.5 and 39.9
λ-max (maximum absorption peak of dye) [2]: 539 and 540
CSF (curve shape factor, 100 X TBW/HBW) [3]: 40.4
HBW (half band width) [3]: 79 nanometers
λ-max (maximum absorption peak of dye) [3]: 545
Compound: CCCCCCCCCCCCC(Oc1ccc(O)c(C(C)(C)C)c1)C(=O)Nc1ccc(Cl)c(NC2=NN(c3c(Cl)cc(Cl)cc3Cl)C(=O)C2)c1 (stereo not drawn) [CC-2, reference compound]
HBW (half band width) [2]: 81 nanometers and 79 nanometers and 78 nanometers

CSF (curve shape factor, 100 X TBW/HBW) [3]: 45.3
HBW (half band width) [3]: 88 nanometers
λ-max (maximum absorption peak of dye) [3]: 556
Compound: CCC(C)(C)c1ccc(OCC(=O)Nc2cccc(C(=O)NC3=NN(c4c(Cl)cc(Cl)cc4Cl)C(=O)C3)c2)c(C(C)(C)CC)c1 [CC-3, reference compound]

CSF (curve shape factor, 100 X TBW/HBW) [4]: 45.2
HBW (half band width) [4]: 141 nanometers
λ-max (maximum absorption peak of dye) [4]: 659
Compound: CCc1c(Cl)cc(NC(=O)C(CC)Oc2ccc(C(C)(C)CC)cc2C(C)(C)CC)c(O)c1Cl (stereo not drawn) [CC-4, reference compound]

CSF (curve shape factor, 100 X TBW/HBW) [4]: 43.5
HBW (half band width) [4]: 88 nanometers
λ-max (maximum absorption peak of dye) [4]: 446
Compound: CCCCCCCCCCCCCCCCS(=O)(=O)Nc1ccc(Cl)c(NC(=O)C(Oc2ccc(S(=O)(=O)c3ccc(OCc4ccccc4)cc3)cc2)C(=O)C(C)(C)C)c1 (stereo not drawn) [CC-5, reference compound]

CSF (curve shape factor, 100 X TBW/HBW) [4]: 42.0
HBW (half band width) [4]: 85 nanometers
λ-max (maximum absorption peak of dye) [4]: 441
Compound: CCC(C)(C)c1ccc(OCCCC(=O)Nc2ccc(Cl)c(NC(=O)C(Oc3ccc(S(=O)(=O)c4ccc(OCc5ccccc5)cc4)cc3)C(=O)C(C)(C)C)c2)c(C(C)(C)CC)c1 (stereo not drawn) [CC-6, reference compound]

CSF (curve shape factor, 100 X TBW/HBW) [4]: 45.2
HBW (half band width) [4]: 85 nanometers
λ-max (maximum absorption peak of dye) [4]: 445
Compound: CCCCC(Oc1ccc(S(=O)(=O)c2ccc(OCc3ccccc3)cc2)cc1)C(=O)Nc1ccc(Cl)c(NC(=O)C(Oc2ccc(S(=O)(=O)c3ccc(O)cc3)cc2)C(=O)C(C)(C)C)c1 (stereo not drawn) [CC-7, reference compound]

CSF (curve shape factor, 100 X TBW/HBW) [4]: 44.3
HBW (half band width) [4]: 90 nanometers
λ-max (maximum absorption peak of dye) [4]: 439
Compound: CCCCC(Oc1ccc(S(=O)(=O)c2ccc(OCc3ccccc3)cc2)cc1)C(=O)Nc1cccc(NC(=O)C(Oc2ccc(S(=O)(=O)c3ccc(O)cc3)cc2)C(=O)C(C)(C)C)c1 (stereo not drawn) [CC-8, reference compound]

CSF (curve shape factor, 100 X TBW/HBW) [5]: 43.8
HBW (half band width) [5]: 87 nanometers
λ-max (maximum absorption peak of dye) [5]: 450
Compound: CCCCCCCCCCC(Oc1ccc(S(=O)(=O)c2ccc(OCc3ccccc3)cc2)cc1)C(=O)Nc1ccc(Cl)c(NC(=O)C(Oc2ccc(S(=O)(=O)c3ccc(O)cc3)cc2)C(=O)C(C)(C)C)c1 (stereo not drawn) [CC-9, reference compound]

Continued, compound first:

Compound: CCCCCCCCCCCCC(Oc1ccc(S(=O)(=O)c2ccc(O)cc2)cc1)C(=O)Nc1ccc(NC(=O)CCC)c(O)c1 (stereo not drawn) [Coupler C-2]
CSF [5]: 45.7%
HBW [5]: 144 nm
λ-max [5]: 655 nm

Compound: CCCCCCCCCCCCC(Oc1ccc(S(=O)(=O)c2ccc(O)cc2)cc1)C(=O)Nc1ccc(NC(=O)C(F)(F)F)c(O)c1 (stereo not drawn) [Coupler C-3]
CSF [4]: 47.8%
HBW [4]: 161 nm
λ-max [4]: 659 nm

Compound: CCCCCCCCCCC(Oc1ccc(S(=O)(=O)c2ccc(O)cc2)cc1)C(=O)Nc1cc(O)c(NC(=O)Nc2cccc(S(=O)(=O)NCCCC)c2)cc1OC (stereo not drawn) [Coupler C-13]
CSF [6]: 44.4%
HBW [6]: 135 nm
λ-max [6]: 702 nm

Compound: CCCCCCCCCCC(Oc1ccc(S(=O)(=O)c2ccc(O)cc2)cc1)C(=O)Nc1cc(Cl)c(CC)c(Cl)c1O (stereo not drawn) [Coupler C-31]
CSF (curve shape factor, 100 X TBW/HBW) [4]: 47.0
HBW (half band width) [4]: 160 nanometers
λ-max (maximum absorption peak of dye) [4]: 675

Compound: CCCCCCCCCCCCC(Oc1ccc(S(=O)(=O)c2ccc(O)cc2)cc1)C(=O)NC1=NN(c2c(Cl)cc(Cl)cc2Cl)C(=O)C1 (stereo not drawn) [Coupler M-3]
CSF (curve shape factor, 100 X TBW/HBW) [1]: 46.0
HBW (half band width) [1]: 96 nanometers
λ-max (maximum absorption peak of dye) [1]: 546
CSF [1]: 45.7%
HBW [1]: 96 nm
λ-max [1]: 546 nm

Compound: CCCCCCCCCCC(Oc1ccc(S(=O)(=O)c2ccc(O)cc2)cc1)C(=O)Nc1ccc(CCCc2n[nH]c3cc(C)nn23)cc1 (stereo not drawn) [Coupler M-8]
CSF (curve shape factor, 100 X TBW/HBW) [3]: 50.5
HBW (half band width) [3]: 86 nanometers
λ-max (maximum absorption peak of dye) [3]: 550

Compound: CCCCCCCCCCC(Oc1ccc(S(=O)(=O)c2ccc(O)cc2)cc1)C(=O)Nc1ccc(CCCc2n[nH]c3c(Cl)c(C)nn23)cc1 (stereo not drawn) [Coupler M-9]
CSF [7]: 44.2%
HBW [7]: 90 nm
λ-max [7]: 558 nm

Compound: CCCCCCCCCCCCC(Oc1ccc(S(=O)(=O)c2ccc(O)cc2)cc1)C(=O)Nc1ccc(Cl)c(NC2=NN(c3c(Cl)cc(Cl)cc3Cl)C(=O)C2)c1 (stereo not drawn) [Coupler M-27]
CSF (curve shape factor, 100 X TBW/HBW) [1]: 47.0
HBW (half band width) [1]: 91 nanometers
λ-max (maximum absorption peak of dye) [1]: 545

Compound: CCCCCCCCCCC(Oc1ccc(S(=O)(=O)c2ccc(O)cc2)cc1)C(=O)Nc1ccc(Cl)c(NC2=NN(c3c(Cl)cc(Cl)cc3Cl)C(=O)C2)c1 (stereo not drawn) [Coupler M-28]
CSF (curve shape factor, 100 X TBW/HBW) [1]: 46.7
HBW (half band width) [1]: 92 nanometers
λ-max (maximum absorption peak of dye) [1]: 549
CSF (curve shape factor, 100 X TBW/HBW) [2]: 46.5
HBW (half band width) [2]: 93 nanometers
λ-max (maximum absorption peak of dye) [2]: 541
CSF (curve shape factor, 100 X TBW/HBW) [3]: 46.4
HBW (half band width) [3]: 94 nanometers
λ-max (maximum absorption peak of dye) [3]: 549
CSF [3]: 42.6%
HBW [3]: 94 nm
λ-max [3]: 549 nm

Compound: CCCCCCCCCCC(Oc1ccc(S(=O)(=O)c2ccc(O)cc2)cc1)C(=O)Nc1ccc(Cl)c(NC2=NN(c3c(Cl)cc(Cl)cc3Cl)C(=O)C2SCCCCCCC)c1 (stereo not drawn) [Coupler M-29]
CSF (curve shape factor, 100 X TBW/HBW) [2]: 46.7
HBW (half band width) [2]: 88 nanometers
λ-max (maximum absorption peak of dye) [2]: 540
CSF (curve shape factor, 100 X TBW/HBW) [3]: 40.9
HBW (half band width) [3]: 90 nanometers
λ-max (maximum absorption peak of dye) [3]: 545

Compound: CCCCCCCCCCC(CN(C)S(=O)(=O)c1ccc(NC2=NN(c3c(Cl)cc(S(=O)(=O)N(C)C)cc3Cl)C(=O)C2)c(Cl)c1)Oc1ccc(S(=O)(=O)c2ccc(O)cc2)cc1 (stereo not drawn) [Coupler M-32]
CSF (curve shape factor, 100 X TBW/HBW) [2]: 40.9
HBW (half band width) [2]: 82 nanometers
λ-max (maximum absorption peak of dye) [2]: 549

Compound: CC(C)(C)C(=O)C(Oc1ccc(S(=O)(=O)c2ccc(OCc3ccccc3)cc2)cc1)C(=O)Nc1cc(NS(=O)(=O)c2ccc(O)cc2)ccc1Cl (stereo not drawn) [Coupler Y-1]
CSF (curve shape factor, 100 X TBW/HBW) [4]: 43.7
HBW (half band width) [4]: 88 nanometers
λ-max (maximum absorption peak of dye) [4]: 449

Compound: CCCCC(Oc1ccc(S(=O)(=O)c2ccc(O)cc2)cc1)C(=O)Nc1ccc(Cl)c(NC(=O)C(Oc2ccc(S(=O)(=O)c3ccc(O)cc3)cc2)C(=O)C(C)(C)C)c1 (stereo not drawn) [Coupler Y-2]
CSF (curve shape factor, 100 X TBW/HBW) [4]: 44.4
HBW (half band width) [4]: 90 nanometers
λ-max (maximum absorption peak of dye) [4]: 445

Compound: CCCCC(Oc1ccc(S(=O)(=O)c2ccc(O)cc2)cc1)C(=O)Nc1cccc(NC(=O)C(Oc2ccc(S(=O)(=O)c3ccc(O)cc3)cc2)C(=O)C(C)(C)C)c1 (stereo not drawn) [Coupler Y-3]
CSF (curve shape factor, 100 X TBW/HBW) [4]: 44.4
HBW (half band width) [4]: 93 nanometers
λ-max (maximum absorption peak of dye) [4]: 441

Compound: CCCCCCCCCCC(Oc1ccc(S(=O)(=O)c2ccc(O)cc2)cc1)C(=O)Nc1ccc(Cl)c(NC(=O)C(Oc2ccc(S(=O)(=O)c3ccc(O)cc3)cc2)C(=O)C(C)(C)C)c1 (stereo not drawn) [Coupler Y-4]
CSF (curve shape factor, 100 X TBW/HBW) [5]: 44.6
HBW (half band width) [5]: 90 nanometers
λ-max (maximum absorption peak of dye) [5]: 450
